Paper PMC11784013, “Potassium molybdate blocks APN-dependent coronavirus entry by degrading receptor via PIK3C3-mediated autophagy” (Journal of Virology, 2024)

Experiments:
APN = test: Pathway inhibitor screen on PM-induced APN degradation in ST cells (western blot); format: cell-based, porcine; settings: PM 10 mM, 16 h, 3-MA 20 mM
Protocol: Fig 6 PM degrades APN by autophagy-lysosome pathway. (A) ST cells were treated with PM (10 mM) and infected with TGEV (0.1 MOI) in the presence and absence of MG132 (20 µM), 3-MA (20 mM), and Z-VAD-FMK (20 µM) for 16 h. The APN expression and TGEV N were detected by western blot. (B) ST cells were treated with PM (10 mM) at 2, 4, 8, and 16 h, autophagy markers P62 and LC3, and APN were measured by western blot. (C) ST cells were transfected with RFP-EGFP-LC3B for 12 h and then treated with PM (10 mM) or H2O for 36 h. The fluorescence of GFP and RFP was detected by confocal microscopy, scale bar: 5 µm. (D) Quantification of autophagosomes (Merge) and autolysosomes (RFP) from C using Image J software. (E) ST cells were treated with PM or H2O for 24 h. The autophagosomes (yellow arrow) and autolysosomes (asterisk) were detected by transmission electron microscope, scale bar: 2 µm. (F) The number of autophagosomes (yellow arrow) and autolysosomes (asterisk) was quantified. All western blot results were calculated by Image J. Results are presented as mean ± SD of data from three independent experiments. ***, P ≤ 0.001.
Fig 7 PM degrades APN expression via activating PIK3C3-mediated autophagy. (A) Graphical representation for autophagy and the targets of different autophagy inhibitors. (B) ST cells were treated with PM (10 mM) in the presence and absence of 3-MA (20 mM), SBI0206965 (20 µM), and 3BDO (30 µM) for 16 h, and the APN expression was detected by western blot. (C) ST cells were treated with PM (10 mM) in the presence and absence of 3-MA (20 mM) for 16 h, and the APN, PIK3C3, ATG14, BECN1, P62, and LC3 were measured by western blot. (D) ST cells were transfected with PIK3C3 siRNA-1, PIK3C3 siRNA-2, PIK3C3 siRNA-3, PIK3C3 siRNA-4, and NC siRNA for 24 h, the PIK3C3 expression was detected by western blot. (E) ST cells were transfected with PIK3C3 siRNA-4 or NC siRNA for 24 h and then treated with PM (10 mM) for 16 h. The APN, PIK3C3, ATG14, BECN1, P62, and LC3 were detected by western blot. (F) Sequencing diagram for WT ST cells and PIK3C3 KO ST cells. (G) PIK3C3 was detected by western blot in WT ST cells and PIK3C3 KO ST cells. (H) WT ST cells and PIK3C3 KO ST cells were treated with PM (10 mM) for 16 h and then the APN, PIK3C3, ATG14, BECN1, P62, and LC3 were detected by western blot. (I) WT ST cells and PIK3C3 KO ST cells were transfected with pCMV-Myc and pCMV-Myc-PIK3C3, respectively, for 24 h and treated with PM (10 mM) for 16 h. The APN, PIK3C3, P62, and LC3 were detected by western blot. All western blot results were calculated by Image J. All experiments were performed in triplicate.

TGEV Miller = test: TGEV infection of ST cells (RT-qPCR, TCID50, western blot, IFA); format: cell-based, transmissible gastroenteritis virus; settings: TGEV Miller 0.1 MOI, indicated concentrations, 1 h pretreatment and 17 h
Protocol: Fig 1 PM inhibits TGEV and PRCV infection in ST cells. (A) A cytotoxicity assay of PM in ST cells. ST cells cultured in a 96-well plate were incubated with different concentrations of PM for 24 h, which was tested by Cell Counting Kit 8. (B) Time course for PM inhibiting TGEV or PRCV or PEDV infection assay. (C–F) The ST cells, pretreated with PM at the indicated concentrations for 1 h were infected with TGEV Miller (0.1 MOI) or PRCV (0.1 MOI) for 1 h and were again treated with PM at 37°C for 17 h. The cell samples were collected and examined by real-time quantitative PCR (RT-qPCR), TCID50, western blot (C and D), and immunofluorescence assay (IFA) (E and F), scale bar: 50 µm. (G) Vero-E6 cells were treated with indicated PM and infected with PEDV LJX 01/2014 according to the time course of Fig. 1B, which was detected by TCID50 and western blot. Results are presented as mean ± SD of data from three independent experiments. ns, no significant; **, P ≤ 0.01; ***, P ≤ 0.001.
Fig 3 PM inhibits TGEV and PRCV infection by potassium ion and molybdate synergy. […] The cell samples were measured by RT-qPCR. (C and D) ST cells were treated with PM (K2MoO4, 10 mM), KCl (20 mM), Na2MoO4 (10 mM), sodium chloride (NaCl, 10 mM), K2MoO4 (10 mM), and NaCl (20 mM) as well as Na2MoO4 (10 mM) and KCl (20 mM) for 1 h and then infected with TGEV Miller (0.1 MOI) or PRCV (0.1 MOI) for 17 h, which was determined by RT-qPCR and TCID50. […]
Total RNA was extracted using RNAiso reagent (TaKaRa, Japan, 9109) and reverse transcribed into cDNA using HiScript Q RT SuperMix for qPCR (Vazyme, China, R223-01), both of which followed the manufacturer’s recommendations. The TGEV and PRCV virus copy numbers were detected by the TaqMan probe-based RT-qPCR method developed previously in our laboratory ([59]). Relative qPCR was also performed using ChamQ SYBR qPCR master mix (Vazyme, China, Q311-02), and the results were calculated via the 2^-ΔΔCT method.

[1] = no virus, SBI0206965 20 µM, 3BDO 30 µM

## O=C1OC(COc2ccccc2[N+](=O)[O-])CC1Cc1ccccc1 (stereo not drawn) [3BDO]
APN; [1]
  reversal of PM-induced APN degradation: cannot abolish the degradation of APN

## [Cl-].[K+] [potassium chloride]
TGEV Miller
  TGEV infection, single salt: neither potassium chloride nor sodium molybdate was able to suppress TGEV infection

## CNC(=O)c1ccccc1Oc1nc(Nc2cc(OC)c(OC)c(OC)c2)ncc1Br [SBI0206965]
APN; [1]
  reversal of PM-induced APN degradation: cannot abolish the degradation of APN

## Cn1cnc(N)c2ncnc1-2 [3-MA, 3-Methyladenine]
APN; [1]
  reversal of PM-induced APN degradation: reversed the changes in APN expression
APN; TGEV 0.1 MOI, MG132 20 µM, Z-VAD-FMK 20 µM
  reversal of PM-induced APN degradation: reversed

## [Na+].[Na+].[O]=[Mo](=[O])([O-])[O-] [sodium molybdate]
TGEV Miller
  TGEV infection, single salt: neither potassium chloride nor sodium molybdate was able to suppress TGEV infection
